Measurements reported in PMC6271088, “Quantification of the Resveratrol Analogs trans-2,3-Dimethoxy-stilbene and trans-3,4-Dimethoxystilbene in Rat Plasma: Application to Pre-Clinical Pharmacokinetic Studies” (Molecules, 2014).
“Also recorded” adds a separate entry of the source. Where two headings read alike, the source gives them in different places.

What was measured:
[1] = Oral pharmacokinetics in Sprague-Dawley rats; format: in vivo; details: for post-dosing plasma samples above LLOQ (10 ng/mL): six rats
Method: (§1) This animal model has been used to investigate the pharmacokinetics of various stilbenes. The animal handling protocol was reviewed and approved by the Institutional Animal Care and Use Committee of the National University of Singapore (NUS). All animal experiments were carried out in Comparative Medicine Centre of NUS. Sprague-Dawley rats (male, 346 ± 18 g, bred by Centre for Animal Resources, NUS) were maintained on a 12 h light/dark cycle with free access to food and water. Polyethylene tube (inner diameter (I.D.) 0.58 mm, outside diameter (O.D.) 0.965 mm, Becton Dickinson, Sparks, MD, USA) was implanted into the right jugular vein under anaesthesia on the day before pharmacokinetic study. This catheter was used for intravenous drug administration as well as for blood sampling.
(§2) Twenty-two rats were divided into four groups. Group 1 and Group 2 (n = 5) received single intravenous bolus dose (4 mg/kg) of 2,3-DMS and 3,4-DMS respectively. Serial blood samples were collected before dosing (0 min) and at 5, 15, 30, 60, 90, 120, 180, 300, 480 and 660 min post-dosing. Group 3 and Group 4 (n = 6) received single oral dose (10 mg/kg) of 2,3-DMS and 3,4-DMS respectively through oral gavage and serial blood samples were collected before dosing (0 min) and at 15, 30, 45, 60, 90, 120, 180, 300, 480 and 660 min post-dosing. 0.3 mL heparin-saline (10 I.U./mL) was used to flush the cannular after each intravenous injection or blood sampling to maintain its patency. Blood samples were centrifuged at 3500 g at 4 °C for 5 min and plasma was collected and stored at −80 °C.
(§3) Pharmacokinetic parameters were derived using WinNonlin standard version 1.0 (Scientific Consulting Inc., Apex, NC, USA). […] Plasma exposure (area under the plasma concentration-time curve from 0 min to last measurable point (AUC0→last)) in rats receiving intravenous administration was calculated by the linear/log trapezoidal rule while the linear trapezoidal rule was used to calculate the plasma exposure in rats receiving oral administration. Clearance (Cl0→last), mean transit time (MTT0→last) and terminal half-life (t1/2 λZ) were calculated using non-compartmental analysis. Maximal plasma concentration (Cmax) and the time required to reach (tmax) were from direct experimental observations. Absolute oral bioavailability (F) of 2,3-DMS was calculated through reported method.

[2] = Intravenous pharmacokinetics in Sprague-Dawley rats; format: in vivo; details: intravenous 4 mg/kg; for plasma level relative to LLOQ (10 ng/mL) over sampling period: sampling up to 660 min; for B / α / β / A: two-compartment model; for A: HP-β-CD formulation; for AUC(0-t) / clearance / Vd / half-life: male, Sprague-Dawley, rat, plasma; for clearance: read-out: Cl (clearance); for Vd: read-out: Vc (volume of distribution of the central compartment); for half-life: read-out: t1/2 λZ (terminal elimination half-life)
Method: as §1, §2, §3

[3] = Rat liver microsome metabolic stability; format: in vitro ADME, Sprague-Dawley rat; details: for half-life at 0.6 µg/mL: Sprague-Dawley, pH 7.4, in the presence of NADPH, 37 °C; for half-life at 0.6 µg/mL / compound remained after microsomal incubation: rat liver microsomes; for stability in acetonitrile-inactivated microsomes: acetonitrile-inactivated microsomes (chemical stability); for compound remained after microsomal incubation: in the absence of NADPH, 45 min incubation
Method: RLM metabolic stabilities of 2,3-DMS and 3,4-DMS were examined by mixing Sprague-Dawley RLM with potassium phosphate buffer (pH = 7.4), NADPH regenerating solution B and either compounds to achieve a final compound concentration of 0.6 µg/mL. Negative control was set up, using Milli-Q water in place of NADPH. Chemical stability of compound in inactivated RLM was checked using similar system with acetonitrile/Milli-Q mixture instead of phosphate buffe.
Pre-incubation was done in 37 °C water bath for 5 min before NADPH A was added to initiate reaction. Aliquots were drawn at 0, 5, 15, 25, 35 and 45 min and quenched using ice cold trans-stilbene–acetonitrile working solution. Chemical stability was monitored at 0, 25 and 45 min. The samples were further processed for HPLC analysis as described above.
To assess extent of metabolism, percentage of compound remaining at each time point with respect to 0 min was calculated. Mean and standard deviation was obtained from column statistics using GraphPad Prism 5, version 5.03 for Windows, via raw means from the six replicates of each setup. Elimination half-lives were obtained from non-linear regression via one-phase exponential decay, where x was time in minutes, y was percentage remaining with respect to 0 min and a weighting factor of 1/y^2 was used.

[4] = Post-preparative stability (processed samples in auto-sampler vial); format: physicochemical; details: rat, Post-preparative samples stored at 24 °C for 24 h, read-out: Stability (% Remained); for remaining at 24 h, 25 ng/mL: spiked 25 ng/mL; for remaining at 24 h, 400 ng/mL: spiked 400 ng/mL; for remaining at 24 h, 1400 ng/mL: spiked 1400 ng/mL
Method: (§4) Stock solutions of analytes were prepared in DMSO to a final concentration of 1 mg/mL, stored at room temperature (24 °C) and protected from light. The internal standard (IS) (trans-stilbene) was prepared by dissolving in acetonitrile and diluted to 100 ng/mL (working solution). Equal volumes of rat liver microsome (RLM) and trans-stilbene–acetonitrile working solution were mixed to quench the reaction. After vigorous vortexing for 20 s, the samples were centrifuged at 6,000 g for 10 min at 4 °C. Rat plasma samples were processed by adding trans-stilbene–acetonitrile working solution to rat plasma in 3:1 ratio. After vigorous vortexing for 20 s, the samples were centrifuged at 10,000 g for 4 min at 4 °C. Finally, the supernatant was transferred into a glass insert that was pre-installed in a 1.5 mL auto-sampler vial. During each assay, 75 µL supernatant was injected into the HPLC-UV system.
(§5) Stabilities of 2,3-DMS in stock solution were evaluated after storage at room temperature for eight days. Stability of 2,3-DMS in rat plasma under different conditions was profiled with QC samples. Freeze-thaw stability was assessed after three freeze (−80 °C)–thaw (24 °C) cycles. Short-term room temperature stability (24 °C) of 2,3-DMS in rat plasma was examined after storing such samples at room temperature for 6 h. Long-term storage stability of 2,3-DMS in rat plasma was studied after being stored at −80 °C for 10 days. Post-preparative stability study was conducted by re-analyzing samples (kept in auto-sampler vial at room temperature) 24 h later. The stability of 3,4-DMS was assessed in the same way. Samples were considered stable if analytical responses were within 100% ± 15% of corresponding freshly prepared samples.

[5] = Stability in rat plasma (QC samples: short-term, freeze-thaw, long-term); format: in vitro ADME; details: read-out: Stability (% Remained); for remaining at 25 ng/mL / remaining at 400 ng/mL / remaining at 1400 ng/mL: Plasma samples after three freeze-thaw cycles; for remaining at 25 ng/mL / remaining at 6 h, 25 ng/mL / remaining at 240 h, 25 ng/mL: spiked 25 ng/mL; for remaining at 400 ng/mL / remaining at 6 h, 400 ng/mL / remaining at 240 h, 400 ng/mL: spiked 400 ng/mL; for remaining at 1400 ng/mL / remaining at 6 h, 1400 ng/mL / remaining at 240 h, 1400 ng/mL: spiked 1400 ng/mL; for remaining at 6 h, 25 ng/mL / remaining at 6 h, 400 ng/mL / remaining at 6 h, 1400 ng/mL: Plasma samples stored at 4 °C for 6 h; for remaining at 240 h, 25 ng/mL / remaining at 240 h, 400 ng/mL / remaining at 240 h, 1400 ng/mL: Plasma samples stored at −80 °C for 10 days
Method: as §5, with “Short-term room temperature stability (24 °C) of 2,3-DMS in rat plasma was examined after storing such samples at room temperature for 6 h.” left out

[6] = Stock solution stability (DMSO stock, room temperature); format: physicochemical; details: Stock solution stored at 24 °C for 8 days, read-out: Stability (% Remained)
Method: as §4
Stabilities of 2,3-DMS in stock solution were evaluated after storage at room temperature for eight days. Stability of 2,3-DMS in rat plasma under different conditions was profiled with QC samples. Freeze-thaw stability was assessed after three freeze (−80 °C)–thaw (24 °C) cycles. Short-term room temperature stability (24 °C) of 2,3-DMS in rat plasma was examined after storing such samples at room temperature for 6 h. […] The stability of 3,4-DMS was assessed in the same way. […]

[7] = cited from earlier work

Row | Compound | post-dosing plasma samples above LLOQ (10 ng/mL) ([1]; oral 10 mg/kg) | plasma level relative to LLOQ (10 ng/mL) over sampling period [2] | B [2] [ng/mL] | α [2] | β [2] | A [2] [ng/mL] | AUC(0-t) [2] [ng·h/mL] | clearance [2] [mL/min/kg] | Vd [2] [L/kg] | half-life [2] [h] | half-life at 0.6 µg/mL [3] [h] | stability in acetonitrile-inactivated microsomes [3] | compound remained after microsomal incubation [3] | remaining at 24 h, 25 ng/mL [4] [%] | remaining at 24 h, 400 ng/mL [4] [%] | remaining at 24 h, 1400 ng/mL [4] [%] | remaining at 25 ng/mL [5] [%] | remaining at 400 ng/mL [5] [%] | remaining at 1400 ng/mL [5] [%] | oral bioavailability (in words) [7] | further results
1 | COc1cccc(/C=C/c2ccccc2)c1OC [2,3-DMS, trans-2,3-Dimethoxystilbene] | 32 out of 60 | remained quantifiable throughout our sampling period | 135.6 ± 40.6 | 5.02 ± 1.76 10^−2 × min^−1 | 3.08 ± 0.73 10^−3 × min^−1 | 1384.1 ± 251.4 | 1160 | 52 ± 7 | 2.71 ± 0.51 | 4.81 ± 1.55 | 0.237 | good stability | 46.6% ± 4.6% | 97.2 ± 2.5 | 100.1 ± 0.5 | 100.6 ± 0.7 | 102 ± 4.5 | 93.2 ± 1.2 | 91.8 ± 2.6 |  | Cmax ([1]; male, Sprague-Dawley, rat, plasma, oral 10 mg/kg): 37.5 ± 23.7 ng/mL; bioavailability ([1]; male, Sprague-Dawley, rat, plasma, oral 10 mg/kg vs intravenous 4 mg/kg, read-out: F (oral bioavailability)): 2.22 ± 2.13%; AUC(0-t) ([1]; male, Sprague-Dawley, rat, plasma, oral 10 mg/kg, HP-β-CD formulation): 64.3 ng·h/mL; MTT0→last (mean transit time) ([1]; oral 10 mg/kg): 83.2 ± 67.4 min; MTT0→last (mean transit time) [2]: 131.0 ± 4.5 min; remaining at 6 h, 25 ng/mL [5]: 94.9 ± 4.4%; remaining at 6 h, 400 ng/mL [5]: 95.5 ± 1.1%; remaining at 6 h, 1400 ng/mL [5]: 95.4 ± 0.6%; remaining at 240 h, 25 ng/mL [5]: 107 ± 6.6%; remaining at 240 h, 400 ng/mL [5]: 96.6 ± 4.7%; remaining at 240 h, 1400 ng/mL [5]: 93.5 ± 4.1%; remaining at 192 h, 1 mg/mL [6]: 98.1 ± 2.1%
2 | COc1cc(C=Cc2cc(OC)c(OC)c(OC)c2)cc(OC)c1 [3,4,5,3',5'-pentamethoxystilbene] |  |  |  |  |  |  |  |  |  |  |  |  |  |  |  |  |  |  |  | excellent or quite good oral bioavailability | 
3 | COc1ccc(/C=C/c2ccccc2)cc1OC [3,4-DMS, trans-3,4-dimethoxystilbene] | three post-dosing samples collected from one out of six rats | became unmeasurable at 11 h | 55.9 ± 26.1 | 5.25 ± 1.45 10^−2 × min^−1 | 3.85 ± 2.45 10^−3 × min^−1 | 702.7 ± 148.5 | 427 | 143 ± 40.5 | 5.58 ± 1.73 | 3.22 ± 2.05 | 0.277 | good stability | 78.1% ± 5.3% | 98.1 ± 5.7 | 98.1 ± 1.8 | 100.1 ± 0.6 | 106 ± 5.2 | 93.4 ± 0.7 | 92.4 ± 2.4 |  | oral bioavailability (in words) ([1]; oral 10 mg/kg, 10 mg/kg): even poorer than 2,3-DMS; also recorded: almost nil; clearance relative to rat hepatic blood flow [2]: three-fold; MTT0→last (mean transit time) ([2]; 4 mg/kg): 61.4 ± 27.1 min; remaining at 6 h, 25 ng/mL [5]: 104 ± 6.6%; remaining at 6 h, 400 ng/mL [5]: 94.7 ± 0.7%; remaining at 6 h, 1400 ng/mL [5]: 96.2 ± 0.4%; remaining at 240 h, 25 ng/mL [5]: 91 ± 13.8%; remaining at 240 h, 400 ng/mL [5]: 93.6 ± 4.6%; remaining at 240 h, 1400 ng/mL [5]: 93 ± 3.7%; remaining at 192 h, 1 mg/mL [6]: 96.7 ± 2.7%
4 | COc1ccc(/C=C/c2cc(OC)cc(OC)c2)cc1 [3,5,4'-trimethoxysilbene, trans-3,5,4'-trimethoxystilbene] |  |  |  |  |  |  |  |  |  |  |  |  |  |  |  |  |  |  |  | excellent or quite good oral bioavailability | 
5 | Oc1cc(O)cc(/C=C/c2ccccc2)c1 [pinosylvine, trans-3,5-dihydroxystilbene] |  |  |  |  |  |  |  |  |  |  |  |  |  |  |  |  |  |  |  | much poorer than resveratrol | 
6 | COc1cc(/C=C/c2ccc(OC)c(OC)c2)cc(OC)c1 [trans-3,5,3',4'-tetramethoxystilbene] |  |  |  |  |  |  |  |  |  |  |  |  |  |  |  |  |  |  |  | excellent or quite good oral bioavailability | 
